Assay [1] concerns PHENOBAC bacterial culture. Put plainly: microbe, parasite or virus in culture. The format is cell-based, PHENOBAC mutant bacteria containing Pseudomonas. Conditions: for IC50: 20 min, read-out: concentration resulting in an inhibition of the bacteria of about 50%. The source says:
In the rapid toxicity test described herein the dried culture first undergoes rehydration and then respiration development when contacted with aqueous system containing organic material.
In carrying out the test process, a preselected amount of the dried bacterial culture is first charged to a preselected amount of a standardized substrate for the purpose of determining a standard of respiration or activity of the culture. […] Typically, the quantity of bacterial culture is selected to give a good rate of oxygen decline, e.g., a decline of 2-5 mg/liter oxygen over a twenty minute interval. For reference purposes from 5 to 15 grams of culture/500 ml. of sample solution will be sufficient. The standardized substrate used in the test procedure is […] or another standardized medium of known composition. […] During this period, this oxygen respiration activity is measured by measuring the dissolved oxygen content in the substrate. The dissolved oxygen content then is plotted as a function of time. The rate of decline of dissolved oxygen content in the substrate is ascertained at some preselected time where the rate of dissolved oxygen decline is substantial and where the residual oxygen in the sample of greater than 0.5 mg/l oxygen. With bacterial cultures of the type described, this preselected time can be within the range of 10 to 30 minutes. […] Although numerous methods can be used to ascertain the rate of decline of oxygen, the simplest is to determine that rate from a graph by taking the slope (y/x) of the curve at the preselected time.
The organic quality of sewage, in terms of organic content or toxic substance, is measured by repeating the exact same process, using the test sample in place of the standardized sample. In many instances, particularly where the test sample contains a substantial amount of toxic material or organic matter, the test sample may be diluted with distilled water to provide a more accurate measurement. This is done in those cases where the slope of the curve is small. In any event, the test substrate or wastewater to be tested is added to the test vessel containing the bacterial culture and the dissolved oxygen content measured as a function of time. The rate of decline in dissolved oxygen content for the test substrate or wastewater is then determined at the same preselected time utilized for the standard. This rate of decline is then compared to the rate of decline for the standardized substrate. The relative toxicity or inhibition of the test water versus the standardized substrate, can then be calculated by the equation: [formula]
A baseline standard was generated for a bacterial formulation sold under the trademark PHENOBAC by Polybac Corporation by first charging 350 ml of distilled water to a first vessel. The water was then saturated with oxygen by sealing the vessel which was half full of air and shaking it rapidly.

Assay [2] relates to PHENOBAC bacterial culture. Put plainly: microbe, parasite or virus in culture. Conditions: Pseudomonas, pH 7, read-out: percent inhibition, with prehydration. How it is done:
A baseline standard was generated for a bacterial formulation sold under the trademark PHENOBAC by Polybac Corporation by first charging 350 ml of distilled water to a first vessel. The water was then saturated with oxygen by sealing the vessel which was half full of air and shaking it rapidly. The dissolved oxygen content of the sample was then measured to determine if the oxygen level exceeded 5.0 mg/l at a temperature of 20° C. (If the level was above 5.0 mg/l, it was assumed the sample was sufficiently saturated with oxygen to proceed.) After oxygen saturation, the water was charged to a second vessel containing 8 grams of the dried granular PHENOBAC mutant bacteria containing Pseudomonas and 0.6 grams of potassium bicarbonate. The latter acted to buffer the pH in the vessel to approximately 7. A dissolved oxygen probe was then inserted into the vessel and the contents of the vessel stirred while measuring the dissolved oxygen concentration in the vessel. Several measured data points were recorded in one to two minute intervals for a period of about 30 minutes. These values were plotted with dissolved oxygen in mg/liter represented on the ordinant and time (minute) plotted represented on the abscissa. The baseline standard curves are shown as Curves A and J on FIGS. 1 and 2 respectively.
A series of tests was conducted for the purpose of determining the relative toxicity of various phenolic solutions. The general test technique involved the utilization of test samples containing various known concentrations of toxic material, e.g., phenol. The test sample was buffered to a pH of 7 by the addition of sodium hydroxide or sulphuric acid. Measurement of pH using pH paper was found most convenient. Once the pH of the solution was at the appropriate level, the sample was then aerated by placing the sample in a vessel half full of air, sealing the vessel and shaking the vessel vigorously for several minutes. The oxygen saturated 350 ml. solution having a dissolved oxygen content greater than 5.0 mg/l was then introduced to a test vessel containing 8 grams of dried granular PHENOBAC bacterial culture and 0.5 g of sodium bicarbonate. The dissolved oxygen concentration in the closed sealed vessel was then measured and plotted for a series of phenol concentrations in FIG. 1 in the same manner as the baseline standard in Example 1 and also illustrated in FIG. 1. Each curve, B-G, is labeled with respect to the phenol concentration present during the test. Curve A represents the baseline standard. From these curves one can calculate the rate of decline in dissolved oxygen concentration observed at 20 minutes for each phenol concentration. The percent inhibition is then calculated from the various dissolved oxygen decline curves for each phenol concentration in FIG. 1 according to the equation: [formula]
As in Examples 1 and 2, the general technique for these tests involved pretreatment of the wastewater or test solution to achieve a pH of 7.0 and an oxygen saturation of at least 5.0 mg/l. However, prior to adding the test solution to the test vessel containing the dried PHENOBAC culture, the bacteria were allowed to rehydrate 10 minutes in clean water and then the test solution containing phenol was added to the test vessel. In this manner, the initial rehydration of the bacterial populations was carried out in the absence of the chemical being tested. This is the customary prior art procedure. After rehydration, the bacteria were then exposed to the test chemical and its effect on bacterial respiration evaluated.

The mark [3] stands for this setting: Pseudomonas, pH 7, read-out: percent inhibition, preferred contact rehydration.

≈ marks a conversion by molar mass, not a printed value. Like-named read-outs stand apart in the source and are kept apart here.

Regarding `C=O` [formaldehyde], the IC50 in assay [1] (Pseudomonas) was roughly 140 µg/mL (≈ 4.66 mM).

As for `[Cu+2]` [copper, copper (+2) ion], the “concentration resulting in an inhibition of the bacteria of about 50%” value in assay [1] (from FIG. 3, rate of dissolved oxygen decline at 20 minutes versus baseline standard) was found to be 29 mg/L.

Regarding `Oc1ccccc1` [phenol], in assay [1] (Pseudomonas), the IC50 is roughly 1600 µg/mL (≈ 17 mM). Besides, in assay [1] (setting [3]), the inhibition at 312 µg/mL is 12%, the inhibition at 625 µg/mL was found to be 22%, the inhibition at 1250 µg/mL came to 37% and the inhibition at 2500 µg/mL worked out at 68%. In assay [1] (setting [3]), the inhibition at 5000 µg/mL is 87% and the inhibition at 10000 µg/mL is 98%. In assay [1] (rehydrated in direct contact with the test phenol solutions rather than in water first), the “inhibition or sensitivity of the bacteria, direct contact rehydration compared with prehydration in water” value is “greater inhibition or sensitivity”. Moreover, in assay [2], the inhibition at 312 µg/mL was 10%, the inhibition at 625 µg/mL was determined as 17%, the inhibition at 1250 µg/mL came out at 33% and the inhibition at 2500 µg/mL was found to be 57%. In addition, in assay [2], the inhibition at 5000 µg/mL came to 80% and the inhibition at 10000 µg/mL was determined as 93%.
